Test system: 5X-Gal4-tata-Luc or TK-Gal4-Luc
Assay: Autonomous repressor activity, Gal4 DBD fusions on Gal4-responsive reporter genes in HepG2 cells
Assay type: cell-based
Details: fused to Gal4 DBD, both reporter genes

NCoR: known transcriptional repressor, nuclear receptor co-repressor
effect on transcriptional activity of Gal4-responsive reporter genes: inhibit

From patent US7238793B2 (Duke University, priority 2001, dated 2007)
